Data on 14 compounds can be found in patent US20100204340A1 (priority 2009, published 2010).

One series concerns the target T1, SIRT1 polypeptide (Homo sapiens, UniProt Q96EB6).
T1 construct: purchased Cayman Chemical Company 10010401
T1 sequence (Q96EB6 1-747): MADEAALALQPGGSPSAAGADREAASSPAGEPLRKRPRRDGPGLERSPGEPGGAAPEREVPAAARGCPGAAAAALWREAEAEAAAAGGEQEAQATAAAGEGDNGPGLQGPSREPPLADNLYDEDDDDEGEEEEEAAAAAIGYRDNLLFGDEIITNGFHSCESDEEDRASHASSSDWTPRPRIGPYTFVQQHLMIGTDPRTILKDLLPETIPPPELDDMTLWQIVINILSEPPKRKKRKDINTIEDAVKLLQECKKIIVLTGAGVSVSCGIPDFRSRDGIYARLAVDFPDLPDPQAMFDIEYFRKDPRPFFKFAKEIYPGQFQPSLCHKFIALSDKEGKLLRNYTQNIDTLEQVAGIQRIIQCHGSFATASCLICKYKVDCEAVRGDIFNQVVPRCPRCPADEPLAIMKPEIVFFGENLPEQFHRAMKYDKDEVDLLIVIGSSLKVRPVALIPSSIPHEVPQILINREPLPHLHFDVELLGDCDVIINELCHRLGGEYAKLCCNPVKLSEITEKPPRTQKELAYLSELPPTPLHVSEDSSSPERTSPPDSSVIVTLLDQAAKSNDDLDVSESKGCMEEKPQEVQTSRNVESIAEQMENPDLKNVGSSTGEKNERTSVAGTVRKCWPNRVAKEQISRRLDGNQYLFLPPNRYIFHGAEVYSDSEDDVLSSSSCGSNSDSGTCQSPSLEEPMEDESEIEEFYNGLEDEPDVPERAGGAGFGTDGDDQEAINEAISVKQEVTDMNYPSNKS
In words: SIRT 1 Direct fluorescent Screening Assay kit (Cayman). Type of series: biochemical. To be noted: read-out: Percentage SIRT 1 modulation; for activation at 1 µg/mL: 1 μg/ml; for activation at 10 µg/mL: 10 μg/ml; for activation at 50 µg/mL: 50 μg/ml; for activation at 100 µg/mL: 100 μg/ml; for activation at 250 µg/mL: 250 μg/ml. As for the experimental part:
SIRT-1 activation/inhibition was measured using the SIRT 1 Direct fluorescent Screening Assay kit (Catalog No. 10010401) and instructions provided therein of Cayman Chemical Company, 1180 East Ellsworth Road, Ann Arbor, Mich. 48108 USA. (http://www.caymanchem.com/pdfs/10010401.pdf)

The test system of series [1] is adipocyte differentiation. The settings on record: prior art, Biochem Biophys Res Commun 372 (2008) 108-113; cited from earlier work.
A further series has as its system 3T3-L1 cells. The settings on record: cited from earlier work.
Series [2] in a line: Pharmacokinetics in serum and urine upon oral administration. The class given is in vivo, rats. To be noted: rats, oral, 100 mg/kg body weight. As for the experimental part:
The compound in its free and conjugated form is freely absorbed into systemic circulation with the glucoronide detected up to 72 hours.
(FIG. 4). The compound in its free and conjugated form appears in systemic circulation within 15 minutes of administration.

Structures are written as SMILES.

Turning to `Oc1cc(O)cc(/C=C/c2ccc(O)cc2O)c1` [Oxyresveratrol, trans-2,3′,4,5′-tetrahydroxystilbene], at SIRT1 polypeptide, the activation at 1 µg/mL is 77.8%, the activation at 10 µg/mL was 24.4%, the activation at 50 µg/mL worked out at 60% and the activation at 100 µg/mL stood at 202%. The activation at 250 µg/mL at SIRT1 polypeptide amounted to 298%. As for `COc1c(O)cc(C=Cc2ccccc2)cc1O` [3,5-dihydroxy-4-methoxystilbene], the “Effect on adipocyte differentiation / adipogenesis” value in series [1] is reported as “no effect on adipogenesis”. On to `CC(=O)O.Cc1c(O)cc(C=Cc2ccccc2)cc1O` [3,5-dihydroxy-4-methylstilbene acetate], for which the “Effect on adipocyte differentiation / adipogenesis” value in series [1] is “no effect on adipogenesis”.

On to `Oc1ccc(/C=C/c2cc(O)cc3c2[C@@H](c2cc(O)cc(O)c2)[C@H](c2ccc(O)cc2)O3)cc1` [e-viniferin], for which the “Effect on adipocyte differentiation / adipogenesis” value in series [1] is recorded as “no effect on adipogenesis”. On to `Oc1ccc([C@H]2c3c(O)cc(O)cc3[C@H]3c4c(cc(O)cc4[C@@H]2c2cc(/C=C/c4cc(O)cc5c4[C@H](c4cc(O)cc(O)c4)[C@@H](c4ccc(O)cc4)O5)ccc2O)O[C@@H]3c2ccc(O)cc2)cc1` [Vitisin A], for which, in series [1], the “Effect on adipocyte differentiation / adipogenesis” value is on record as “inhibited adipocyte differentiation most effectively”. As to `OC[C@H]1O[C@@H](Oc2cc(O)cc(/C=C/c3ccc(O)cc3)c2)[C@H](O)[C@@H](O)[C@@H]1O` [resveratrol-3-O-B-D-glucoside], the “Effect on adipocyte differentiation / adipogenesis” value in series [1] is given as “no effect on adipogenesis”. In the case of `CC(NC(=O)c1ccccc1/N=C/c1c(O)ccc2ccccc12)c1ccccc1` (stereo not shown) [Sirtinol, 2-[(2-Hydroxynaphthalen-1-ylmethylene)amino]-N-(1-phenyl-ethyl)•benzamide], the activation at 1 µg/mL at SIRT1 polypeptide was determined as 64.4%.

For the compound `COc1ccc(C=Cc2cc(OC(C)=O)cc(OC3OC(COC(C)=O)C(OC(C)=O)C(OC(C)=O)C3OC(C)=O)c2)cc1OC(C)=O` (stereo not shown) [rhaponticin hexaacetate], in series [1], the “Effect on adipocyte differentiation / adipogenesis” value was “no effect on adipogenesis”. Take `CC(=O)OCC1OC(Oc2cc(C=Cc3ccc(OC(C)=O)cc3)cc(OC(C)=O)c2)C(OC(C)=O)C(OC(C)=O)C1OC(C)=O` (stereo not shown) [resveratrol-3-O-Glu hexaacetate]: the “Effect on adipocyte differentiation / adipogenesis” value in series [1] is “no effect on adipogenesis”. Turning to `COc1ccc(C=Cc2cc(O)cc(O)c2)cc1` [3,5-dihydroxy-40-methoxystilbene], in series [1], the “Effect on adipocyte differentiation / adipogenesis” value is recorded as “no effect on adipogenesis”.

Turning to `COc1cc(C=Cc2ccc(O)cc2)cc(OC)c1` [Pterostilbene, 3,5-dimethoxy-4′-hydroxystilbene], on SIRT1 polypeptide, the activation at 1 µg/mL was 2.22%, the activation at 10 µg/mL is 11.1%, the activation at 50 µg/mL amounted to 53.3% and the activation at 100 µg/mL was found to be 113%. For the same compound, the activation at 250 µg/mL on SIRT1 polypeptide was 231%. Besides, the IC50 in the series with 3T3-L1 cells (approximate conversion of 23.9 μg/ml, read-out: Reported IC50 (adipogenesis), converted) is approximately 96 µM. Also, the “Reported IC50 (adipogenesis)” value in the series with 3T3-L1 cells (reported, Remsberg et al., 3T3-L1) was 23.9 µg/mL.

Regarding `Oc1cc(O)cc(/C=C/c2c(O)cccc2O)c1` [Gnetol, 2,3′,5′,6-tetrahydroxy-trans-stilbene], in series [2] (serum), the “Oral bioavailability (free form and glucoronide)” value is given as “orally bioavailable”. For the same compound, the Urinary excretion form result in series [2] (urine) was “excreted predominantly as glucoronides in the urine”. As for `CC(=O)Oc1ccc(C=Cc2cc(OC(C)=O)cc(OC(C)=O)c2)cc1` [resveratrol triacetate], the “Effect on adipocyte differentiation / adipogenesis” value in series [1] was “no effect on adipogenesis”. Consider `COc1ccc(/C=C/c2cc(O)cc(O[C@@H]3O[C@H](CO)[C@@H](O)[C@H](O)[C@H]3O)c2)cc1O` [rhaponticin], for which the “Effect on adipocyte differentiation / adipogenesis” value in series [1] is on record as “no effect on adipogenesis”.
